From US6689778B2, “Inhibitors of Src and Lck protein kinases” (Vertex Pharmaceuticals Incorporated, priority 2001, dated 2004)

What was measured:
[1] = target: human Lck kinase (UniProt P06239); assay: Lck inhibition assay (radioactivity-based assay A or spectrophotometric assay B); format: biochemical; conditions: poly Glu-Tyr substrate; assay A or B not specified; read-out: Lck Activity (Ki class)
Experimental: The compounds were evaluated as inhibitors of human Lck kinase using either a radioactivity-based assay or spectrophotometric assay.
(§1) The compounds were assayed as inhibitors of full length bovine thymus Lck kinase (from Upstate Biotechnology, cat. no. 14-106) expressed and purified from baculo viral cells. Lck kinase activity was monitored by following the incorporation of ^33P from ATP into the tyrosine of a random poly Glu-Tyr polymer substrate of composition, Glu:Tyr=4:1 (Sigma, cat. no. P-0275). The following were the final concentrations of the assay components: 0.025 M HEPES, pH 7.6, 10 mM MgCl2, 2 mM DTT, 0.25 mg/ml BSA, 10 μM ATP (1-2 μCi ^33P-ATP per reaction), 5 mg/ml poly Glu-Tyr, and 1-2 units of recombinant human Src kinase. In a typical assay, all the reaction components with the exception of ATP were pre-mixed and aliquoted into assay plate wells. Inhibitors dissolved in DMSO were added to the wells to give a final DMSO concentration of 2.5%. The assay plate was incubated at 30° C. for 10 minutes before initiating the reaction with ^33P-ATP. After 20 min of reaction, the reactions were quenched with 150 μl of 10% trichloroacetic acid (TCA) containing 20 mM Na3PO4. The quenched samples were then transferred to a 96-well filter plate (Whatman, UNI-Filter GF/F Glass Fiber Filter, cat no. 7700-3310) installed on a filter plate vacuum manifold. Filter plates were washed four times with 10% TCA containing 20 mM Na3PO4 and then 4 times with methanol. 200 μl of scintillation fluid was then added to each well. The plates were sealed and the amount of radioactivity associated with the filters was quantified on a TopCount scintillation counter. The radioactivity incorporated was plotted as a function of the inhibitor concentration. The data was fitted to a competitive inhibition kinetics model to get the Ki for the compound.
(§2) The ADP produced from ATP by the human recombinant Lck kinase-catalyzed phosphorylation of poly Glu-Tyr substrate was quanitified using a coupled enzyme assay (Fox et al (1998) Protein Sci 7, 2249). In this assay one molecule of NADH is oxidised to NAD for every molecule of ADP produced in the kinase reaction. The disappearance of NADH can be conveniently followed at 340 nm.
(§3) The following were the final concentrations of the assay components: 0.025 M HEPES, pH 7.6, 10 mM MgCl2, 2 mM DTT, 5 mg/ml poly Glu-Tyr, and 50 nM of recombinant human Lck kinase. Final concentrations of the components of the coupled enzyme system were 2.5 mM phosphoenolpyruvate, 200 μM NADH, 30 μg/ml pyruvate kinase and 10 μg/ml lactate dehydrogenase.
(§4) In a typical assay, all the reaction components with the exception of ATP were pre-mixed and aliquoted into assay plate wells. Inhibitors dissolved in DMSO were added to the wells to give a final DMSO concentration of 2.5%. The assay plate was incubated at 30° C. for 10 minutes before initiating the reaction with 150 μM ATP. The absorbance change at 340 nm with time, the rate of the reaction, was monitored on a molecular devices plate reader. The data of rate as a function of the inhibitor concentration was fitted to competitive inhibition kinetics model to get the Ki for the compound.

[2] = target: T1, human Src kinase (Homo sapiens, UniProt P12931); assay: Src inhibition assay (radioactivity-based assay A or spectrophotometric assay B); format: biochemical; conditions: recombinant human Src, poly Glu-Tyr substrate; assay A or B not specified
T1 construct: full length recombinant human Src kinase (from Upstate Biotechnology, cat. no. 14-117); purchased Upstate Biotechnology 14-117; host or cells: baculovirus-infected (insect) cells
Experimental: The compounds were evaluated as inhibitors of human Src kinase using either a radioactivity-based assay or spectrophotometric assay.
as §1, with “length recombinant human Src” for “length bovine thymus Lck”, “no. 14-117)” for “no. 14-106)”, “cells. Src” for “cells. Lck”, “components: 0.05” for “components: 0.025”, “20 minutes” for “20 min”
as §2, with “Src” for “Lck”
as §3, with “DTT, 0.25” for “DTT, 5”, “and 25” for “and 50”, “human Src” for “human Lck”
as §4, with “100” for “150”, “compettive” for “competitive”

T1 sequence (P12931 whole entry): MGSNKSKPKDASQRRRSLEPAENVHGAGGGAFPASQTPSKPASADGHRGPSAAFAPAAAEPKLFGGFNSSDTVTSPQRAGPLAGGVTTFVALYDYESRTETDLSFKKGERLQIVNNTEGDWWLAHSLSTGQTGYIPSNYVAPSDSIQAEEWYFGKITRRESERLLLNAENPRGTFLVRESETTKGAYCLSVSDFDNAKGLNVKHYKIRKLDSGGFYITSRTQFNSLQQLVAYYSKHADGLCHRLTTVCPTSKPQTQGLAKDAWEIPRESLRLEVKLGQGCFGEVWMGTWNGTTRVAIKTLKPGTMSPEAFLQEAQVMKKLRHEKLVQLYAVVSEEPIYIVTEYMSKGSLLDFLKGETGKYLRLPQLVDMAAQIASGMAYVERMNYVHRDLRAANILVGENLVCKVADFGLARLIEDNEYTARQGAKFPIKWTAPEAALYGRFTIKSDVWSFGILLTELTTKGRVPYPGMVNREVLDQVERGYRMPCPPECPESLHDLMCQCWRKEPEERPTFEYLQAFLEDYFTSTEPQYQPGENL

| SMILES | Ki [1] [nM] | Ki [2] [nM] |
| --- | --- | --- |
| Cc1onc(C2CCCCC2)c1-c1ccnc(Nc2cccc(OCCCN3CCC(O)CC3)c2)n1 [IIIa-9] | < 100 | – |
| Cc1onc(C2CCCCC2)c1-c1ccnc(Nc2cccc(OCCCN3CCCC(O)C3)c2)n1 (centres unmarked) [IIIa-13] | < 100 | – |
| Cc1onc(C2CCCCC2)c1-c1ccnc(Nc2cccc(OCCCN3CCCCC3)c2)n1 [IIIa-17] | < 100 | – |
| CCc1onc(C2CCCCC2)c1-c1nc(Nc2cccc(O)c2)ncc1C [IIIb-28] | < 100 | < 100 |
| Cc1onc(C2CCCCC2)c1-c1ccnc(Nc2cccc(OCCCCN3CCC(O)CC3)c2)n1 [IIIa-19] | < 100 | – |
| Cc1onc(C2CCCCC2)c1-c1ccnc(Nc2cccc(OC3CCCNC3)c2)n1 (centres unmarked) [IIIa-29] | < 100 | – |
| Cc1onc(C2CCCCC2)c1-c1ccnc(Nc2cccc(OCCCN3CCC(CO)CC3)c2)n1 [IIIa-10] | < 100 | – |
| Cc1onc(C2CCCCC2)c1-c1ccnc(Nc2cccc(OCCCN3CCC[C@H]3CO)c2)n1 [IIIa-11] | < 100 | – |
| Cc1onc(C2CCCCC2)c1-c1ccnc(Nc2cccc(NC(=O)CCN3CCCCC3)c2)n1 [Va-1] | < 100 | < 100 |
| Cc1onc(C2CCCCC2)c1-c1ccnc(Nc2cccc(OCCCCN3CCCCC3)c2)n1 [IIIa-26] | < 100 | – |
| Cc1onc(C2CCCCC2)c1-c1ccnc(Nc2cccc(OCCN3CCN(CCO)CC3)c2)n1 [IIIa-8] | < 100 | < 100 |
| Cc1onc(C2CCCCC2)c1-c1ccnc(Nc2cccc(OCCN3CCC(O)CC3)c2)n1 [IIIa-5] | < 100 | < 100 |
| Cc1onc(C2CCCCC2)c1-c1ccnc(Nc2cccc(OCCN3CCOCC3)c2)n1 [IIIa-2] | < 100 | < 100 |
| Cc1onc(C2CCCCC2)c1-c1ccnc(Nc2cccc(OCC3CCCN(C(=O)OC(C)(C)C)C3)c2)n1 (centres unmarked) [IIIa-30] | > 1000 | – |
| Cc1onc(C2CCCCC2)c1-c1ccnc(Nc2cccc(OCC3CCCNC3)c2)n1 (centres unmarked) [IIIa-31] | < 100 | – |
| CCCOCc1cnc(Nc2cc(OC)cc(OC)c2)nc1-c1c(C2CCCCC2)noc1C [IIIb-29] | < 100 | – |
| Cc1onc(C2CCCCC2)c1-c1ccnc(Nc2cccc(OCCN3CCC(CO)CC3)c2)n1 [IIIa-6] | < 100 | < 100 |

| SMILES | Ki [1] [nM] | Ki [2] [nM] |
| --- | --- | --- |
| Cc1onc(C2CCCCC2)c1-c1ccnc(Nc2cccc(OCCCCN3CCCC3)c2)n1 [IIIa-25] | < 100 | – |
| Cc1onc(C2CCCCC2)c1-c1ccnc(Nc2cccc(OCCN3CCC[C@H]3CO)c2)n1 [IIIa-7] | < 100 | < 100 |
| Cc1onc(C2CCCCC2)c1-c1ccnc(Nc2cccc(OCCCN3CCNCC3)c2)n1 [IIIa-18] | < 100 | – |
| Cc1onc(C2CCCCC2)c1-c1ccnc(Nc2cccc(OCCCN3CCCC3)c2)n1 [IIIa-16] | < 100 | – |
| Cc1onc(C2CCCCC2)c1-c1ccnc(Nc2cccc(OCCN3CCCC3)c2)n1 [IIIa-3] | < 100 | < 100 |
| COc1cc(Nc2ncc(C(=O)O)c(-c3c(C4CCCCC4)noc3C)n2)cc(OC)c1 [IIIb-24] | > 1000 | – |
| Cc1onc(C2CCCCC2)c1-c1ccnc(Nc2cccc(OCCCCN3CCOCC3)c2)n1 [IIIa-24] | < 100 | – |
| Cc1onc(C2CCCCC2)c1-c1ccnc(Nc2cccc(OCCOC3CCCCO3)c2)n1 (centres unmarked) [IIIa-1] | < 100 | < 100 |
| Cc1onc(C2CCCCC2)c1-c1ccnc(Nc2cccc(OCCCCN3CCN(CCO)CC3)c2)n1 [IIIa-22] | < 100 | – |
| CCN1CCN(CCCCOc2cccc(Nc3nccc(-c4c(C5CCCCC5)noc4C)n3)c2)CC1 [IIIa-23] | < 100 | – |
| COc1cc(Nc2ncc(CO)c(-c3c(C4CCCCC4)noc3C)n2)cc(OC)c1 [IIIb-25] | > 1000 | – |
| Cc1onc(C2CCCCC2)c1-c1ccnc(Nc2cccc(OCCCN3CCOCC3)c2)n1 [IIIa-15] | < 100 | – |
| COc1cc(Nc2ncc(C#N)c(-c3c(C4CCCCC4)noc3C)n2)cc(OC)c1 [IIIb-27] | 100 to 1000 | – |
| Cc1onc(C2CCCCC2)c1-c1ccnc(Nc2cccc(OCCCN3CCN(CCO)CC3)c2)n1 [IIIa-12] | < 100 | – |
| Cc1onc(C2CCCCC2)c1-c1ccnc(Nc2cccc(OCCN3CCCCC3)c2)n1 [IIIa-4] | < 100 | < 100 |
| COc1cc(Nc2ncc(C(N)=O)c(-c3c(C4CCCCC4)noc3C)n2)cc(OC)c1 [IIIb-26] | > 1000 | – |
| Cc1onc(C2CCCCC2)c1-c1ccnc(Nc2cccc(OC3CCCN(C(=O)OC(C)(C)C)C3)c2)n1 (centres unmarked) [IIIa-28] | > 1000 | – |
